Results reported in the supplement of paper PMC13380429.

Tests used:
Conditions in all cases: 72 h
[1] = system: Caco-2; assay: cell viability relative to DMSO; higher = less toxic
[2] = system: Calu-3; assay: as above
[3] = system: HepG2; assay: as above
[4] = system: U2OS; assay: as above
[5] = system: Vero E6; assay: as above
[6] = system: Calu-3; assay: relative viability EC50 (midpoint between 100% and the lowest measured viability); higher = less toxic
[7] = system: HepG2; assay: as above
[8] = system: U2OS; assay: as above
[9] = system: Vero E6; assay: as above
[10] = system: Caco-2; assay: drug sensitivity score (DSS) for viability; higher = more toxic; extreme values may be limits of the assay
[11] = system: Calu-3; assay: as above
[12] = system: HepG2; assay: as above
[13] = system: U2OS; assay: as above
[14] = system: Vero E6; assay: as above
[15] = system: Caco-2; assay: relative viability EC50 (midpoint between 100% and the lowest measured viability); higher = less toxic

Row | Compound | cell viability ([1]; 1 nM) [%] | cell viability ([1]; 10 nM) [%] | cell viability ([1]; 100 nM) [%] | cell viability ([1]; 1000 nM) [%] | cell viability ([1]; 10000 nM) [%] | cell viability ([2]; 1 nM) [%] | cell viability ([2]; 10 nM) [%] | cell viability ([2]; 100 nM) [%] | cell viability ([2]; 1000 nM) [%] | cell viability ([2]; 10000 nM) [%] | cell viability ([3]; 1 nM) [%] | cell viability ([3]; 10 nM) [%] | cell viability ([3]; 100 nM) [%] | cell viability ([3]; 1000 nM) [%] | cell viability ([3]; 10000 nM) [%] | cell viability ([4]; 1 nM) [%] | cell viability ([4]; 10 nM) [%] | cell viability ([4]; 100 nM) [%] | cell viability ([4]; 1000 nM) [%] | cell viability ([4]; 10000 nM) [%] | cell viability ([5]; 1 nM) [%] | cell viability ([5]; 10 nM) [%] | cell viability ([5]; 100 nM) [%] | cell viability ([5]; 1000 nM) [%] | cell viability ([5]; 10000 nM) [%] | relative viability EC50 [6] [µM] | relative viability EC50 [7] [µM] | relative viability EC50 [8] [µM] | relative viability EC50 [9] [µM] | drug sensitivity score [10] | drug sensitivity score [11] | drug sensitivity score [12] | drug sensitivity score [13] | drug sensitivity score [14] | relative viability EC50 [15] [µM]
1 | N[C@@H](CSC(c1ccccc1)(c1ccccc1)c1ccccc1)C(=O)O [S-trityl-L-cysteine] | 96.6 | 100 | 85.9 | 98.4 | 61.4 | 105 | 104 | 94.2 | 92.5 | 84.6 | 83.6 | 93 | 104 | 100 | 40.5 | 101 | 104 | 94.6 | 101 | 48.5 | 98.5 | 100 | 102 | 99.2 | 45 | > 10 | 3.21 | 3.25 | 3.07 | 2.1 | 0.5 | 3.2 | 2.7 | 3 | 
2 | Cn1c(=O)c2[nH]cnc2n(C)c1=O [aminophylline] |  |  |  |  |  | 99.2 | 114 | 100 | 108 | 114 |  |  |  |  |  | 99.1 | 98.9 | 94.9 | 101 | 103 | 99.5 | 100 | 94.9 | 93.1 | 112 | > 10 |  | > 10 | > 10 |  | 0 |  | 0 | 0 | 
3 | O=C(Nc1ccc(N2CCC(C(=O)N3CCOCC3)CC2)cc1)c1cnc(Oc2ccccc2)nc1 [TFC-007] | 99.6 | 101 | 110 | 97.9 | 110 | 96 | 87.6 | 100 | 100 | 103 | 106 | 110 | 101 | 91.8 | 91.4 |  |  |  |  |  | 90.1 | 101 | 90 | 95 | 110 | > 10 | > 10 |  | > 10 | 0 | 0 | 0 |  | 0 | > 10
4 | Oc1cc2c(cc1O)C(c1ccccc1)CNCC2 (stereo not drawn) |  |  |  |  |  | 77.4 | 103 | 78.6 | 99.6 | 78 | 110 | 104 | 108 | 91.8 | 107 | 102 | 102 | 97.3 | 104 | 99 | 104 | 98.2 | 103 | 96.9 | 106 | > 10 | > 10 | > 10 | > 10 |  | 2.2 | 0 | 0 | 0 | 
5 | CC[C@@H]([C@H](C)O)n1ncn(-c2ccc(N3CCN(c4ccc(OC[C@@H]5CO[C@@](Cn6cncn6)(c6ccc(F)cc6F)C5)cc4)CC3)cc2)c1=O [posaconazole] | 97.6 | 99 | 94.3 | 86.7 | 70.2 | 106 | 103 | 91.5 | 92.9 | 93 | 97.8 | 86.9 | 105 | 96.6 | 27.5 | 92.9 | 101 | 93.7 | 90 | 93.8 | 98.8 | 106 | 93.4 | 92.8 | 43.2 | > 10 | 2.81 | > 10 | 2.13 | 2.4 | 0 | 4.5 | 0 | 4.3 | 
6 | O=C(NOCCO)c1ccc2cncn2c1Nc1ccc(I)cc1F [GDC-0623] | 93.5 | 79.5 | 64.6 | 61.8 | 58.2 | 102 | 78.5 | 52.4 | 36.4 | 31.1 | 91.8 | 51.2 | 23.7 | 19.6 | 12.4 | 95.1 | 92.6 | 93.4 | 62 | 25.5 | 98.4 | 81.9 | 55.5 | 49.9 | 49.3 | 0.034 | 0.0088 | 0.916 | 0.017 | 13.8 | 19.7 | 31.7 | 8.6 | 16.8 | 
7 | CC1=C(/C=C/C(C)=C/C=C/C(C)=C/C(=O)Nc2ccc(O)cc2)C(C)(C)CCC1 [fenretinide] | 98.7 | 103 | 100 | 93.2 | 67.9 | 98.9 | 99.9 | 93.3 | 89.5 | 84 | 99.6 | 92.6 | 99.1 | 91.3 | 80 | 97.7 | 97.8 | 99.5 | 104 | 86.8 | 95 | 98.9 | 101 | 101 | 91.1 | > 10 | > 10 | > 10 | > 10 | 2.5 | 0.9 | 1.2 | 0.1 | 0 | 
